The text below walks through data of patent US20220175699A1, “CO[…]-CLEAVABLE A[…] AND […]” (Ensysce Biosciences, Inc., priority 2019, published 2022).

The conditions of data set [1]: rats, fasted, IV 5 mg/kg Compound AM-9. The protocol:
Animals were fasted overnight through 4 hours postdose prior to dosing, 4 animals per groups. Individual doses of AM-9 was calculated based on body weights taken on the day of dosing.
Blood was collected from a jugular vein into tubes containing K2EDTA anticoagulant. Blood (approximately 1 mL) was collected from each animal predose and at 0.167, 0.333, 0.5, 0.667, 0.833 1, 2, 4, and 7 hours postdose and processed for plasma. Plasma samples were evaluated for either AM-9 or amphetamine by LC-MS-MS Mass spectrometer (API 5000 AB Sciex Instruments).

Data set [2] is described as follows: Plasma amphetamine following PO administration of d-amphetamine, Compound AM-9 and Vyvanse to dogs (Example 7). As to conditions: male Beagle dogs, fasted. The procedure:
Male Beagle dogs were fasted overnight through 4 hours postdose. Individual doses of amphetamine, AM-9 and Vyvanse were calculated based on body weights taken on the day of each dosing. The liquid formulations were administered via oral gavage, 4 per group. Prior to withdrawing the gavage tube, the tube was flushed with approximately 10 mL of water.
(§1) Blood (approximately 2 mL) was collected from each animal predose and at 0.167, 0.333, 0.5, 0.75, 1, 2, 3, 4, 6, and 8 hours postdose and processed for plasma. Plasma samples were evaluated for amphetamine by LC-MS-MS Mass spectrometer (API 5000 AB Sciex Instruments).

For data set [3] the following is noted: male Beagle dogs, fasted, PO 0.4 mg/kg. The protocol:
Male Beagle dogs were fasted overnight through 4 hours postdose. Individual doses of all amphetamine and AM-9 (0.4 mg/kg) were calculated based on body weights taken on the day of each dosing. The liquid formulations were administered via oral gavage, 4 per group. Prior to withdrawing the gavage tube, the tube was flushed with approximately 10 mL of water.
as §1

For data set [4] the following is noted: rats, fasted, IV 10 mg/kg Compound AM-9; 2, 15 and 60 min postdose.
Description: The formulation was a clear solution. Animals were fasted overnight through 4 hours postdose prior to dosing, 4 animals per groups. Individual doses of AM-9 was calculated based on body weights taken on the day of dosing.
Blood was collected from a jugular vein into tubes containing K2EDTA anticoagulant. Blood (approximately 1 mL) was collected from each animal predose and at 2, 15 and 60 min postdose and processed for plasma. CSF was obtained at these same time periods. Plasma and CSF samples were evaluated for AM-9 by LC-MS-MS Mass spectrometer (API 5000 AB Sciex Instruments).
The conditions of data set [5]: rats, fasted, PO 27.7 mg/kg Compound AM-9. The protocol: Animals were fasted overnight through 4 hours postdose prior to dosing, 4 animals per groups. Individual doses of AM-9 was calculated based on body weights taken on the day of dosing. […] Prior to withdrawing the gavage tube, the tube was flushed with approximately 2 mL of water.
Blood was collected from a jugular vein into tubes containing K2EDTA anticoagulant. Blood (approximately 1 mL) was collected from each animal predose and at 0.167, 0.333, 0.5, 0.667, 0.833 1, 2, 4, 5, and 8 hours postdose and processed for plasma. Plasma samples were evaluated for AM-9 and amphetamine by LC-MS-MS Mass spectrometer (API 5000 AB Sciex Instruments).

For data set [6] the following is noted: male Beagle dogs, fasted, PO Compound AM-9. The protocol: Male Beagle dogs were fasted overnight through 4 hours postdose. Individual doses of AM-9 were calculated based on body weights taken on the day of each dosing. The liquid formulations were administered via oral gavage, 4 per group. Prior to withdrawing the gavage tube, the tube was flushed with approximately 10 mL of water.
Blood (approximately 2 mL) was collected from each animal predose and at 0.167, 0.333, 0.5, 0.75, 1, 2, 3, 4, 6, and 8 hours postdose and processed for plasma. Plasma samples were evaluated for AM-9 and amphetamine by LC-MS-MS Mass spectrometer (API 5000 AB Sciex Instruments).

Data set [7] in a line: Plasma amphetamine following PO Compound AM-9 6 mg/kg to rats without and with trypsin inhibitor nafamostat (Example 9). Format: in vivo. As to conditions: fasted rats, PO Compound AM-9 6 mg/kg with 1, 2.5, 5 and 10 mg/kg Nafamostat vs alone. The protocol:
This example provides a comparison of the immediate release of amphetamine into plasma when Compound AM-9 at a dosage of 6 mg/kg is administered PO to fasted rats alone, or with 1, 2.5, 5 and 10 mg/kg trypsin inhibitor Nafamostat.
(§2) The formulation was a clear solution. Animals were either fasted overnight through 4 hours postdose or fed ad lib prior to dosing, 4 animals per groups. […] The liquid formulation was administered via oral gavage at […].

Data set [8] is described as follows: Plasma amphetamine following PO Compound AM-9 0.6 mg/kg to rats without and with trypsin inhibitor nafamostat (Example 8). Format: in vivo. The protocol: This example provides a comparison of the immediate release of amphetamine into plasma when Compound AM-9 at a dosage of 0.6 mg/kg is administered PO to fasted rats alone, or with 0.1 and 0.25 mg/kg trypsin inhibitor Nafamostat.
as §2
FIG. 8A depicts the mean plasma concentration of amphetamine over 8 hours after administration of Compound AM-9 at doses of 0.6 mg/kg alone and in combination with 0.1 mg/kg of Nafamostat and 0.25 mg/kg of Nafamostat. FIG. 8B depicts the mean plasma concentration of amphetamine over the first 2 hours after administration of Compound AM-9 at doses of 0.6 mg/kg alone and in combination with 0.1 mg/kg of Nafamostat and 0.25 mg/kg of Nafamostat.

Setting [9] is: fasted rats, PO Compound AM-9 0.6 mg/kg with 0.1 and 0.25 mg/kg Nafamostat vs alone.

Where two headings read alike, the source gives them in different places.

Turning to `CC(=O)NCC(=O)N[C@@H](CCCNC(=N)N)C(=O)N[C@@H](C)Cc1ccccc1` [Compound AM-9, Amphetamine-arginine-glycine-acetate], in data set [1], the “conversion of AM-9 to amphetamine in the blood” value is given as “very little conversion of AM-9 to amphetamine in the blood”. Besides, in data set [2], the “Tmax for peak plasma concentration of amphetamine compared with direct administration of amphetamine” value is reported as “the same as that from direct administration of amphetamine”. Also, in data set [3], the “amphetamine Tmax (time to maximum plasma concentration) compared with administration of amphetamine” value is given as “the same Tmax”. Besides, the “AM-9 crossing from plasma into the CSF” value in data set [4] is reported as “very little AM-9 that crosses from plasma into the CSF”. In data set [5], the “conversion of administered AM-9 to amphetamine” value was “majority of the administered AM-9 is immediately converted to amphetamine” and the “peak plasma concentration (Cmax) of AM-9 relative to peak plasma concentration of amphetamine” value is reported as “approximately half”. In addition, in data set [6], the “conversion of administered AM-9 to amphetamine” value was “majority of the administered AM-9 is immediately converted to amphetamine” and the “peak plasma concentration of AM-9 relative to that of amphetamine” value is recorded as “less than half”.
Regarding `N=C(N)c1ccc2cc(OC(=O)c3ccc(N=C(N)N)cc3)ccc2c1` [Nafamostat, 6-carbamimidoylnaphthalen-2-yl 4-(diaminomethyleneamino)benzoate], the “effect on Cmax of amphetamine release from AM-9” value in data set [7] and in data set [8] (setting [9]) was “reduces the Cmax” throughout. In addition, the “effect on Tmax of amphetamine release from AM-9” value in data set [7] and in data set [8] (setting [9]) was “increases the Tmax” in each case. Moreover, the “effect on release of amphetamine from Compound AM-9 from oral administration” value in data set [8] (rats, PO Compound AM-9 0.6 mg/kg alone and with 0.1 or 0.25 mg/kg Nafamostat, FIGS. 8A-8B) is listed as “reduces the release of amphetamine”.
On to `CS(=O)(=O)O.CS(=O)(=O)O.C[C@@H](Cc1ccccc1)NC(=O)[C@@H](N)CCCCN` [Vyvanse, reference compound], for which, in data set [2], the “Tmax for peak plasma amphetamine concentration” value came out at 2 h.
